Measurements from ChEMBL document CHEMBL1201861, “Genomics of Drug Sensitity in Cancer screening data, Wellcome Trust Sanger Institute”.
Where “and” joins values, the source holds several entries; their conditions need not be identical. Equal values may be shown once. Where a SMILES comes first, the peptide text is derived from it. The star is where a group is joined. Cbz = O=C(OCc1ccccc1)*

Tests used:
CP50-MEL-B = experiment: cells; format: functional, cell-based; conditions: Homo sapiens;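 note: growth inhibition of the human cell line, measured with a cell viability read-out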
Description: SANGER: Inhibition of human CP50-MEL-B cell growth in a cell viability assay.

DK-MG = experiment: cells; format: functional, cell-based; conditions: Homo sapiens;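 note: growth inhibition of DK-MG cells, read out with a cell viability assay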
Description: SANGER: Inhibition of human DK-MG cell growth in a cell viability assay.

EGI-1 = experiment: cells; format: functional, cell-based; conditions: Homo sapiens;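 note: cell viability readout used to gauge growth inhibition of EGI-1 cells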
Description: SANGER: Inhibition of human EGI-1 cell growth in a cell viability assay.

ESS-1 = experiment: cells; format: functional, cell-based; conditions: Homo sapiens;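 note: growth inhibition of human ESS-1 cells, read out by a cell viability assay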
Description: SANGER: Inhibition of human ESS-1 cell growth in a cell viability assay.

HCC1395 = experiment: cells; format: functional, cell-based; conditions: Homo sapiens;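 note: growth inhibition of HCC1395 cells, read out by a cell viability assay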
Description: SANGER: Inhibition of human HCC1395 cell growth in a cell viability assay.

HCC1937 = experiment: cells; format: functional, cell-based; conditions: Homo sapiens;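 note: growth inhibition measured with a cell viability read-out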
Description: SANGER: Inhibition of human HCC1937 cell growth in a cell viability assay.

HSC-2 = experiment: cells; format: functional, cell-based; conditions: Homo sapiens;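 note: growth inhibition of human HSC-2 cells, read out by a cell viability assay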
Description: SANGER: Inhibition of human HSC-2 cell growth in a cell viability assay.

HuP-T3 = experiment: cells; format: functional, cell-based; conditions: Homo sapiens;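 note: HuP-T3 cell growth inhibition, read out with a cell viability assay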
Description: SANGER: Inhibition of human HuP-T3 cell growth in a cell viability assay.

KU-19-19 = experiment: cells; format: functional, cell-based; conditions: Homo sapiens
Description: SANGER: Inhibition of human KU-19-19 cell growth in a cell viability assay.

KYSE-270 = experiment: cells; format: functional, cell-based; conditions: Homo sapiens;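 note: cell growth inhibition measured with a viability assay in the human KYSE-270 line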
Description: SANGER: Inhibition of human KYSE-270 cell growth in a cell viability assay.

KYSE-450 = experiment: cells; format: functional, cell-based; conditions: Homo sapiens;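 note: cell growth inhibition measured by a viability assay in human KYSE-450 cells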
Description: SANGER: Inhibition of human KYSE-450 cell growth in a cell viability assay.

LK-2 = experiment: cells; format: functional, cell-based; conditions: Homo sapiens;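 note: growth inhibition of LK-2 cells, read out with a viability assay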
Description: SANGER: Inhibition of human LK-2 cell growth in a cell viability assay.

M14 = experiment: cells; format: functional, cell-based; conditions: Homo sapiens;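 note: growth inhibition of M14 cells, read out with a cell viability assay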
Description: SANGER: Inhibition of human M14 cell growth in a cell viability assay.

MCF7 = experiment: cells; format: functional, cell-based; conditions: Homo sapiens;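 note: growth inhibition of human MCF7 cells, read out with a cell viability assay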
Description: SANGER: Inhibition of human MCF7 cell growth in a cell viability assay.

MEL-HO = experiment: cells; format: functional, cell-based; conditions: Homo sapiens
Description: SANGER: Inhibition of human MEL-HO cell growth in a cell viability assay.

MFE-280 = experiment: cells; format: functional, cell-based; conditions: Homo sapiens;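 note: growth inhibition of MFE-280 cells, determined with a cell viability readout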
Description: SANGER: Inhibition of human MFE-280 cell growth in a cell viability assay.

MHH-ES-1 = experiment: cells; format: functional, cell-based; conditions: Homo sapiens
Description: SANGER: Inhibition of human MHH-ES-1 cell growth in a cell viability assay.

NB7 = experiment: cells; format: functional, cell-based, Homo sapiens;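 note: growth inhibition of NB7 cells, read out with a cell viability assay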
Description: SANGER: Inhibition of human NB7 cell growth in a cell viability assay.

NCI-H1792 = experiment: cells; format: functional, cell-based; conditions: Homo sapiens;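 note: growth inhibition of human NCI-H1792 cells, read out as cell viability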
Description: SANGER: Inhibition of human NCI-H1792 cell growth in a cell viability assay.

NCI-H2122 = experiment: cells; format: functional, cell-based; conditions: Homo sapiens;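 note: growth inhibition of the cells, read out with a cell viability assay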
Description: SANGER: Inhibition of human NCI-H2122 cell growth in a cell viability assay.

NCI-H2170 = experiment: cells; format: functional, cell-based; conditions: Homo sapiens;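 note: cell viability assay measuring growth inhibition of human NCI-H2170 cancer cells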
Description: SANGER: Inhibition of human NCI-H2170 cell growth in a cell viability assay.

NCI-H2342 = experiment: cells; format: functional, cell-based; conditions: Homo sapiens;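 note: growth inhibition of the cancer cell line, determined with a cell viability assay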
Description: SANGER: Inhibition of human NCI-H2342 cell growth in a cell viability assay.

NCI-H292 = experiment: cells; format: functional, cell-based; conditions: Homo sapiens;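 note: growth inhibition of NCI-H292 cells, read out with a cell viability assay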
Description: SANGER: Inhibition of human NCI-H292 cell growth in a cell viability assay.

NCI-H522 = experiment: cells; format: functional, cell-based; conditions: Homo sapiens;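 note: cell viability assay measuring growth inhibition of human NCI-H522 cells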
Description: SANGER: Inhibition of human NCI-H522 cell growth in a cell viability assay.

NCI-H810 = experiment: cells; format: functional, cell-based; conditions: Homo sapiens;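 note: IC50 reflects inhibition of cancer cell line growth, read out with a cell viability assay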
Description: SANGER: Inhibition of human NCI-H810 cell growth in a cell viability assay.

OVCAR-3 = experiment: cells; format: functional, cell-based; conditions: Homo sapiens;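 note: growth inhibition of human OVCAR-3 cells, determined by a cell viability assay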
Description: SANGER: Inhibition of human OVCAR-3 cell growth in a cell viability assay.

P12-Ichikawa = experiment: cells; format: functional, cell-based; conditions: Homo sapiens
PA-1 = experiment: cells; format: functional, cell-based; conditions: Homo sapiens;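 note: IC50 for suppression of PA-1 cell proliferation, determined with a cell viability read-out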
Description: SANGER: Inhibition of human PA-1 cell growth in a cell viability assay.

PANC-08-13 = experiment: cells; format: functional, cell-based; conditions: Homo sapiens
Description: SANGER: Inhibition of human PANC-08-13 cell growth in a cell viability assay.

RCM-1 = experiment: cells; format: functional, cell-based; conditions: Homo sapiens;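 note: growth inhibition of the RCM-1 line, determined with a cell viability readout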
Description: SANGER: Inhibition of human RCM-1 cell growth in a cell viability assay.

SAS = experiment: cells; format: functional, cell-based; conditions: Homo sapiens;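 note: growth inhibition of SAS cells, read out with a cell viability assay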
Description: SANGER: Inhibition of human SAS cell growth in a cell viability assay.

SCC-4 = experiment: cells; format: functional, cell-based; conditions: Homo sapiens;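 note: growth inhibition of human SCC-4 cells, read out as cell viability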
Description: SANGER: Inhibition of human SCC-4 cell growth in a cell viability assay.

SW1088 = experiment: cells; format: functional, cell-based; conditions: Homo sapiens;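 note: growth inhibition of human SW1088 cells, read out by a cell viability assay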
Description: SANGER: Inhibition of human SW1088 cell growth in a cell viability assay.

SW1573 = experiment: cells; format: functional, cell-based; conditions: Homo sapiens;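 note: growth inhibition of SW1573 cells, read out with a cell viability assay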
Description: SANGER: Inhibition of human SW1573 cell growth in a cell viability assay.

SW1783 = experiment: cells; format: functional, cell-based; conditions: Homo sapiens
Description: SANGER: Inhibition of human SW1783 cell growth in a cell viability assay.

SW48 = experiment: cells; format: functional, cell-based; conditions: Homo sapiens;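 note: growth inhibition of SW48 cells, read out with a cell viability assay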
Description: SANGER: Inhibition of human SW48 cell growth in a cell viability assay.

SW780 = experiment: cells; format: functional, cell-based; conditions: Homo sapiens;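 note: growth inhibition of the cells, read out with a cell viability assay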
Description: SANGER: Inhibition of human SW780 cell growth in a cell viability assay.

T84 = experiment: cells; format: functional, cell-based; conditions: Homo sapiens;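 note: growth inhibition measured with a cell viability readout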
Description: SANGER: Inhibition of human T84 cell growth in a cell viability assay.

639-V = experiment: cells; format: functional, cell-based; conditions: Homo sapiens;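 note: growth inhibition of 639-V cells, read out with a cell viability assay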
Description: SANGER: Inhibition of human 639-V cell growth in a cell viability assay.

8305C = experiment: cells; format: functional, cell-based; conditions: Homo sapiens
Description: SANGER: Inhibition of human 8305C cell growth in a cell viability assay.

A-427 = experiment: cells; format: functional, cell-based; conditions: Homo sapiens;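 note: growth inhibition of human A-427 cells, read out by a cell viability assay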
Description: SANGER: Inhibition of human A427 cell growth in a cell viability assay.

CAKI-1 = experiment: cells; format: functional, cell-based; conditions: Homo sapiens;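 note: growth inhibition of CAKI-1 cells, measured by a cell viability assay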
Description: SANGER: Inhibition of human CAKI-1 cell growth in a cell viability assay.

CAL-62 = experiment: cells; format: functional, cell-based; conditions: Homo sapiens;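 note: growth inhibition of CAL-62 cells, read out with a cell viability assay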
Description: SANGER: Inhibition of human CAL-62 cell growth in a cell viability assay.

U-251 = experiment: cells; format: functional, cell-based; conditions: Homo sapiens;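 note: growth inhibition of human U-251 cells, read out through a cell viability assay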
Description: SANGER: Inhibition of human U251 cell growth in a cell viability assay.

VMRC-RCZ = experiment: cells; format: functional, cell-based; conditions: Homo sapiens
Description: SANGER: Inhibition of human VMRC-RCZ cell growth in a cell viability assay.

COLO-679 = experiment: cells; format: functional, cell-based; conditions: Homo sapiens
Description: SANGER: Inhibition of human COLO-679 cell growth in a cell viability assay.

HCC1599 = experiment: cells; format: functional, cell-based, Homo sapiens;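 note: growth inhibition of HCC1599 cells, read out in a cell viability assay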
Description: SANGER: Inhibition of human HCC1599 cell growth in a cell viability assay.

IM-9 = experiment: SANGER: Inhibition of human IM-9 cell growth in a cell viability assay.; format: functional, cell-based
IMR-5 = experiment: cells; format: functional, cell-based, Homo sapiens;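 note: growth inhibition of human IMR-5 cells, read out with a cell viability assay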
Description: SANGER: Inhibition of human IMR-5 cell growth in a cell viability assay.

Kasumi 1 = experiment: cells; format: functional, cell-based, Homo sapiens;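 note: growth inhibition of human Kasumi-1 cells, read out by a cell viability assay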
Description: SANGER: Inhibition of human KASUMI-1 cell growth in a cell viability assay.

LB647-SCLC = experiment: cells; format: functional, cell-based, Homo sapiens;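 note: cell growth inhibition, read out by a viability assay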
Description: SANGER: Inhibition of human LB647-SCLC cell growth in a cell viability assay.

LU-165 = experiment: cells; format: functional, cell-based, Homo sapiens
Description: SANGER: Inhibition of human LU-165 cell growth in a cell viability assay.

MFH-ino = experiment: cells; format: functional, cell-based, Homo sapiens;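 note: growth inhibition of human MFH-ino cells, read out by a cell viability assay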
Description: SANGER: Inhibition of human MFH-ino cell growth in a cell viability assay.

NCI-H1436 = experiment: cells; format: functional, cell-based, Homo sapiens;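 note: growth suppression of human NCI-H1436 cells, determined with a cell viability readout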
Description: SANGER: Inhibition of human NCI-H1436 cell growth in a cell viability assay.

NCI-H187 = experiment: cells; format: functional, cell-based, Homo sapiens;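 note: growth inhibition of NCI-H187 cells, read out as cell viability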
Description: SANGER: Inhibition of human NCI-H187 cell growth in a cell viability assay.

NCI-H1963 = experiment: cells; format: functional, cell-based, Homo sapiens;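 note: cell growth inhibition of the human line, determined with a cell viability assay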
Description: SANGER: Inhibition of human NCI-H1963 cell growth in a cell viability assay.

RL = experiment: cells; format: functional, cell-based, Homo sapiens
Description: SANGER: Inhibition of human RL cell growth in a cell viability assay.

SK-MM-2 = experiment: cells; format: functional, cell-based, Homo sapiens;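 note: growth inhibition of human SK-MM-2 cells, read out with a cell viability assay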
Description: SANGER: Inhibition of human SK-MM-2 cell growth in a cell viability assay.

CAL-148 = experiment: cells; format: functional, cell-based, Homo sapiens
Description: SANGER: Inhibition of human CAL-148 cell growth in a cell viability assay.

MDA-MB-175-VII = experiment: cells; format: functional, cell-based; conditions: Homo sapiens
OVCAR-5 = experiment: cells; format: functional, cell-based; conditions: Homo sapiens;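 note: growth inhibition of human OVCAR-5 cells, read out with a cell viability assay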
Description: SANGER: Inhibition of human OVCAR-5 cell growth in a cell viability assay.

[1] = Homo sapiens, IMR-5, read-out: IC50

Measured: IC50

O=C1NC(=O)c2c1c(-c1ccccc1Cl)cc1[nH]c3ccc(O)cc3c21
> 2 µM: CP50-MEL-B | DK-MG | EGI-1 | ESS-1 | HCC1395 | HCC1937 | HSC-2 | HuP-T3 | KU-19-19 | KYSE-450 | LK-2 | MCF7 | MEL-HO | MFE-280 | MHH-ES-1 | NB7; Homo sapiens, NB7 | NCI-H1792 | NCI-H2122 | NCI-H2170 | NCI-H2342 | NCI-H522 | NCI-H810 | OVCAR-3 | PA-1 | PANC-08-13 | RCM-1 | SAS | SCC-4 | SW1088 | SW1573 | SW1783 | SW48 | SW780 | T84 | 639-V | 8305C | A-427 | CAKI-1 | CAL-62 | U-251 | VMRC-RCZ | COLO-679
1.48 µM: KYSE-270
0.482 µM: P12-Ichikawa
1.69 µM: M14
0.454 µM: NCI-H292

Cc1cc(N2CCOCC2)cc2[nH]c(-c3c(NC[C@@H](O)c4cccc(Cl)c4)cc[nH]c3=O)nc12
0.63 µM: SK-MM-2; Homo sapiens, SK-MM-2
> 5.12 µM: HCC1599; Homo sapiens, HCC1599 | IM-9; Homo sapiens, IM-9 | IMR-5; [1] | Kasumi 1; Homo sapiens, Kasumi 1 | LB647-SCLC; Homo sapiens, LB647-SCLC | LU-165; Homo sapiens, LU-165 | NB7; Homo sapiens, NB7 | NCI-H1436; Homo sapiens, NCI-H1436 | NCI-H1963; Homo sapiens, NCI-H1963 | RL; Homo sapiens, RL | CAL-148; Homo sapiens, CAL-148
0.344 µM: MFH-ino; Homo sapiens, MFH-ino
2.34 µM: NCI-H187; Homo sapiens, NCI-H187

CC(C)C[C@H](NC(=O)[C@H](Cc1ccccc1)NC(=O)c1cnccn1)B(O)O [BORTEZOMIB]
0.0159 µM: NB7; Homo sapiens, NB7
0.00422 µM: LB647-SCLC; Homo sapiens, LB647-SCLC
0.017 µM: NCI-H1436; Homo sapiens, NCI-H1436
> 0.02 µM: IM-9; Homo sapiens, IM-9 | IMR-5; [1] | Kasumi 1; Homo sapiens, Kasumi 1 | LU-165; Homo sapiens, LU-165 | NCI-H187; Homo sapiens, NCI-H187 | NCI-H1963; Homo sapiens, NCI-H1963 | RL; Homo sapiens, RL | CAL-148; Homo sapiens, CAL-148
0.00109 µM: SK-MM-2; Homo sapiens, SK-MM-2
0.0119 µM: HCC1599; Homo sapiens, HCC1599
0.000443 µM: MFH-ino; Homo sapiens, MFH-ino

O=C(NCCCNc1nc(Nc2cccc(NC(=O)N3CCCC3)c2)ncc1I)c1cccs1 [BX-795]
2.57 µM: MFE-280
1.57 µM: DK-MG
0.804 µM: PA-1
3.54 µM: SW1783
2.28 µM: OVCAR-5 | CAKI-1
3.61 µM: 8305C
2 µM: SW1088
2.77 µM: VMRC-RCZ
3.26 µM: SW780
2.58 µM: NCI-H292
2.73 µM: MHH-ES-1
1.74 µM: A-427
> 5 µM: CP50-MEL-B | EGI-1 | ESS-1 | HCC1395 | HCC1937 | HSC-2 | HuP-T3 | KU-19-19 | KYSE-270 | KYSE-450 | LK-2 | M14 | MCF7 | MDA-MB-175-VII | MEL-HO | NB7; Homo sapiens, NB7 | NCI-H1792 | NCI-H2122 | NCI-H2170 | NCI-H2342 | NCI-H522 | OVCAR-3 | PANC-08-13 | RCM-1 | SAS | SCC-4 | SW1573 | T84 | 639-V | CAL-62 | U-251 | COLO-679
3.9 µM: NCI-H810
1.18 µM: P12-Ichikawa
2.02 µM: SW48

C[C@@H](Oc1cc(-c2cnn(C3CCNCC3)c2)cnc1N)c1c(Cl)ccc(F)c1Cl [CRIZOTINIB]
> 2 µM: HCC1599; Homo sapiens, HCC1599 | IM-9; Homo sapiens, IM-9 | IMR-5; [1] | Kasumi 1; Homo sapiens, Kasumi 1 | LB647-SCLC; Homo sapiens, LB647-SCLC | LU-165; Homo sapiens, LU-165 | MFH-ino; Homo sapiens, MFH-ino | NB7; Homo sapiens, NB7 | NCI-H1436; Homo sapiens, NCI-H1436 | NCI-H187; Homo sapiens, NCI-H187 | NCI-H1963; Homo sapiens, NCI-H1963 | RL; Homo sapiens, RL | SK-MM-2; Homo sapiens, SK-MM-2 | CAL-148; Homo sapiens, CAL-148

Nc1ccccc1NC(=O)c1ccc(CNC(=O)OCc2cccnc2)cc1 [ENTINOSTAT]
0.367 µM: LB647-SCLC; Homo sapiens, LB647-SCLC
> 5 µM: IM-9; Homo sapiens, IM-9 | IMR-5; [1] | Kasumi 1; Homo sapiens, Kasumi 1 | NB7; Homo sapiens, NB7 | RL; Homo sapiens, RL
1.33 µM: CAL-148; Homo sapiens, CAL-148
0.116 µM: NCI-H1963; Homo sapiens, NCI-H1963
0.399 µM: SK-MM-2; Homo sapiens, SK-MM-2
0.516 µM: HCC1599; Homo sapiens, HCC1599
0.618 µM: LU-165; Homo sapiens, LU-165
3.47 µM: MFH-ino; Homo sapiens, MFH-ino
0.492 µM: NCI-H187; Homo sapiens, NCI-H187
4.18 µM: NCI-H1436; Homo sapiens, NCI-H1436

Cc1ccc(NC(=O)c2ccc(CN3CCN(C)CC3)cc2)cc1Nc1nccc(-c2cccnc2)n1 [IMATINIB]
> 2 µM: HCC1599; Homo sapiens, HCC1599 | IM-9; Homo sapiens, IM-9 | IMR-5; Homo sapiens, IMR-5 | Kasumi 1; Homo sapiens, Kasumi 1 | LB647-SCLC; Homo sapiens, LB647-SCLC | LU-165; Homo sapiens, LU-165 | MFH-ino; Homo sapiens, MFH-ino | NB7; Homo sapiens, NB7 | NCI-H187; Homo sapiens, NCI-H187 | NCI-H1963; Homo sapiens, NCI-H1963 | RL; Homo sapiens, RL | SK-MM-2; Homo sapiens, SK-MM-2 | CAL-148; Homo sapiens, CAL-148
0.978 µM: NCI-H1436; Homo sapiens, NCI-H1436

CC(C)C[C@@H](C=O)NC(=O)[C@H](CC(C)C)NC(=O)[C@H](CC(C)C)NC(=O)OCc1ccccc1 [MG-132] (Cbz-Leu-Leu-Leu-aldehyde)
> 1 µM: HCC1599; hcc1599 | IM-9; im-9 | IMR-5; [1] | IMR-5; imr-5, read-out: IC50 | Kasumi 1; Homo sapiens, Kasumi 1 | Kasumi 1; kasumi 1 | LB647-SCLC; Homo sapiens, LB647-SCLC | LB647-SCLC; lb647-sclc | LU-165; lu-165 | NB7; nb7 | NCI-H1436; Homo sapiens, NCI-H1436 | NCI-H1436; nci-h1436 | NCI-H187; nci-h187 | NCI-H1963; Homo sapiens, NCI-H1963 | NCI-H1963; nci-h1963 | RL; rl | SK-MM-2; sk-mm-2 | CAL-148; cal-148
> 1 µM and 0.111 µM: MFH-ino; mfh-ino

COc1cc(N2CCC(N3CCN(C)CC3)CC2)ccc1Nc1ncc(Cl)c(Nc2ccccc2S(=O)(=O)C(C)C)n1 [TAE-684]
0.325 µM: MFH-ino; Homo sapiens, MFH-ino
0.416 µM: SK-MM-2; Homo sapiens, SK-MM-2
> 2 µM: HCC1599; Homo sapiens, HCC1599 | IM-9; Homo sapiens, IM-9 | IMR-5; [1] | Kasumi 1; Homo sapiens, Kasumi 1 | LU-165; Homo sapiens, LU-165 | NB7; Homo sapiens, NB7 | NCI-H1436; Homo sapiens, NCI-H1436 | NCI-H1963; Homo sapiens, NCI-H1963 | RL; Homo sapiens, RL | CAL-148; Homo sapiens, CAL-148
1.7 µM: NCI-H187; Homo sapiens, NCI-H187
1.35 µM: LB647-SCLC; Homo sapiens, LB647-SCLC
